Active and inactive are the calls of the source. The calls are words filed in the database; no cut-off is given here.
Experiments:
HepG2 = experiment: Antiproliferative activity against human HepG2 cells after 24 hrs by MTT assay; assay type: functional, cell-based; details: HepG2, 24 h
MDA-MB-231 = experiment: Antiproliferative activity against human MDA231 cells after 24 hrs by MTT assay; assay type: functional, cell-based; details: MDA-MB-231, 24 h
HeLa [1] = experiment: Antiproliferative activity against human HeLa cells after 24 hrs by MTT assay; assay type: functional, cell-based
L02 = experiment: Antiproliferative activity against human LO2 cells after 24 hrs by MTT assay; assay type: cell-based; details: L02, 24 h
HEK-293T = experiment: Antiproliferative activity against human 293T cells after 24 hrs by MTT assay; assay type: cell-based
HeLa [2] = experiment: Cell cycle arrest in human HeLa cells assessed as accumulation of cells at G2/M phase at 2 uM after 24 hrs by propidium iodide staining-based FACScan flow cytometric analysis (reference value: 16.82%); assay type: functional
HeLa [3] = experiment: Cell cycle arrest in human HeLa cells assessed as accumulation of cells at G1 phase at 4 uM after 24 hrs by propidium iodide staining-based FACScan flow cytometric analysis (reference value: 62.92%); assay type: functional
HeLa [4] = experiment: Cell cycle arrest in human HeLa cells assessed as accumulation of cells at G2/M phase at 4 uM after 24 hrs by propidium iodide staining-based FACScan flow cytometric analysis (reference value: 16.82%); assay type: functional
[5] = target: [Pyruvate dehydrogenase (acetyl-transferring)] kinase isozyme 1, mitochondrial (Homo sapiens) (UniProt Q15118); experiment: Inhibition of PDK1 in human HeLa cells assessed as increase in PDH activity at 1 to 1.5 uM by microplate assay; assay type: cell-based
[6] = target: [Pyruvate dehydrogenase (acetyl-transferring)] kinase isozyme 1, mitochondrial (Homo sapiens) (UniProt Q15118); experiment: Inhibition of PDK1 in human HeLa cells assessed as increase in PDH-E1 alpha expression up to 8 uM by Western blot analysis; assay type: cell-based
[7] = target: [Pyruvate dehydrogenase (acetyl-transferring)] kinase isozyme 1, mitochondrial (Homo sapiens) (UniProt Q15118); experiment: Inhibition of PDK1 in human HeLa cells assessed as decrease in PDH-E1 alpha p-ser300 expression up to 8 uM by Western blot analysis; assay type: cell-based
Mus musculus = experiment: Inhibition of PDK1 in mouse xenografted with human HeLa cells assessed as upregulation of PDH-E1 alpha expression in tumor tissue at 1 to 2 mg/kg, ip administered once in every 2 days for 15 days by immunohistochemistry; assay type: functional, organism-based
HeLa [8] = experiment: Induction of apoptosis in human HeLa cells assessed as viable cells at 1 uM after 24 hrs by Annexin V-APC/propidium iodide staining-based FACScan flow cytometric analysis (reference value: 85.1%); assay type: functional; details: read-out: Activity
HeLa [9] = experiment: Induction of apoptosis in human HeLa cells assessed as viable cells at 2 uM after 24 hrs by Annexin V-APC/propidium iodide staining-based FACScan flow cytometric analysis (reference value: 85.1%); assay type: functional; details: read-out: Activity
HeLa [10] = experiment: Induction of apoptosis in human HeLa cells assessed as necrotic cells at 2 uM after 24 hrs by Annexin V-APC/propidium iodide staining-based FACScan flow cytometric analysis (reference value: 1.18%); assay type: functional
HeLa [11] = experiment: Induction of apoptosis in human HeLa cells assessed as viable cells at 6 uM after 24 hrs by Annexin V-APC/propidium iodide staining-based FACScan flow cytometric analysis (reference value: 93%); assay type: functional; details: read-out: Activity
HeLa [12] = experiment: Induction of apoptosis in human HeLa cells assessed as early apoptotic cells at 6 uM after 24 hrs by Annexin V-APC/propidium iodide staining-based FACScan flow cytometric analysis (reference value: 2.45%); assay type: functional
HeLa [13] = experiment: Induction of apoptosis in human HeLa cells assessed as late apoptotic cells at 6 uM after 24 hrs by Annexin V-APC/propidium iodide staining-based FACScan flow cytometric analysis (reference value: 3.84%); assay type: functional
HeLa [14] = experiment: Induction of apoptosis in human HeLa cells assessed as early apoptotic cells at 6 uM after 36 hrs by Annexin V-APC/propidium iodide staining-based FACScan flow cytometric analysis (reference value: 2.45%); assay type: functional
HeLa [15] = experiment: Induction of apoptosis in human HeLa cells assessed as necrotic cells at 6 uM after 36 hrs by Annexin V-APC/propidium iodide staining-based FACScan flow cytometric analysis (reference value: 0.725%); assay type: functional
HeLa [16] = experiment: Induction of apoptosis in human HeLa cells assessed as decrease in Bcl2 expression up to 8 uM after 24 hrs by Western blot analysis; assay type: functional, cell-based
HeLa [17] = experiment: Induction of mitochondrial membrane potential loss in human HeLa cells assessed as increase in green fluorescence at 2 to 4 uM by JC-1 staining-based fluorescence microscopic analysis; assay type: functional, cell-based
HeLa [18] = experiment: Induction of mitochondrial membrane potential loss in human HeLa cells assessed as cells with high membrane potential at 2 uM after 12 hrs by JC-1 staining-based flow cytometric analysis (reference value: 85.8%); assay type: functional
HeLa [19] = experiment: Induction of mitochondrial membrane potential loss in human HeLa cells assessed as cells with low membrane potential at 4 uM after 12 hrs by JC-1 staining-based flow cytometric analysis (reference value: 9.31%); assay type: functional
HeLa [20] = experiment: Induction of apoptosis in human HeLa cells assessed as late apoptotic cells by measuring FL3-H+ cells at 2 uM after 12 hrs by propidium iodide staining-based flow cytometric analysis (reference value: 3.66%); assay type: functional
HeLa [21] = experiment: Antitumor activity against human HeLa cells xenografted in nude mouse assessed as reduction in tumor size at 2 mg/kg, ip administered once in every 2 days for 15 days relative to control; assay type: functional
HeLa [22] = experiment: Antitumor activity against human HeLa cells xenografted in nude mouse assessed as reduction in tumor size at 1 mg/kg, ip administered once in every 2 days for 15 days relative to control; assay type: functional, organism-based
HeLa [23] = experiment: Induction of apoptosis in human HeLa cells assessed as late apoptotic cells by measuring FL3-H+ cells at 0.7 uM after 24 hrs by propidium iodide staining-based FACScan flow cytometric analysis (reference value: 2.14%); assay type: functional
HeLa [24] = experiment: Induction of apoptosis in human HeLa cells assessed as late apoptotic cells by measuring FL3-H+ cells at 1.4 uM after 24 hrs by propidium iodide staining-based FACScan flow cytometric analysis (reference value: 2.14%); assay type: functional
HeLa [25] = experiment: Induction of apoptosis in human HeLa cells assessed as late apoptotic cells by measuring FL3-H+ cells at 2.8 uM after 24 hrs by propidium iodide staining-based FACScan flow cytometric analysis (reference value: 2.14%); assay type: functional
HeLa [26] = experiment: Induction of apoptosis in human HeLa cells assessed as late apoptotic cells by measuring FL3-H+ cells at 6 uM after 12 hrs by propidium iodide staining-based FACScan flow cytometric analysis (reference value: 2.13%); assay type: functional
HeLa [27] = experiment: Induction of apoptosis in human HeLa cells assessed as late apoptotic cells by measuring FL3-H+ cells at 6 uM after 24 hrs by propidium iodide staining-based FACScan flow cytometric analysis (reference value: 2.13%); assay type: functional
Homo sapiens = species: Homo sapiens; experiment: Inhibition of microtubule polymerization (unknown origin) at 4 uM after 24 hrs by immunoblot
[28] = target: [Pyruvate dehydrogenase (acetyl-transferring)] kinase isozyme 1, mitochondrial (Homo sapiens) (UniProt Q15118); experiment: Inhibition of PDK1 in human HeLa cells assessed as decrease in PDH-E1 alpha p-ser300 expression at 6 uM by Western blot analysis; assay type: cell-based
[29] = target: [Pyruvate dehydrogenase (acetyl-transferring)] kinase isozyme 1, mitochondrial (Homo sapiens) (UniProt Q15118); experiment: Inhibition of PDK1 in human HeLa cells assessed as decrease in PDH-E1 alpha p-ser232 expression at 6 uM by Western blot analysis; assay type: cell-based

Compound: CC(C)=CC[C@@H](OC(=O)CCCC[C@@H]1CCSC(c2ccccc2)S1)C1=CC(=O)c2c(O)ccc(O)c2C1=O (stereo not given in full)
- IC50 (HepG2): 5.37 µM
- IC50 (MDA-MB-231): 17.7 µM
- IC50 (HeLa [1]): 3.14 µM
- IC50 (L02): 116 µM
- IC50 (HEK-293T): 88.8 µM
- Activity (HeLa [2]): 32.67%
- Activity (HeLa [3]): 25.74%
- Activity (HeLa [4]): 45.2%
- inhibition [5]: Active
- inhibition [6]: Active
- inhibition [7]: Active
- Activity (Mus musculus): Active
- viability at 1 µM (HeLa [8]): 37%
- viability at 2 µM (HeLa [9]): 23.6%
- Activity (HeLa [10]): 11.9%
- viability at 6 µM (HeLa [11]): 29.1%
- Activity (HeLa [12]): 26.1%
- Activity (HeLa [13]): 34.8%
- Activity (HeLa [14]): 45.7%
- Activity (HeLa [15]): 5.03%
- Activity (HeLa [16]): Active
- Activity (HeLa [17]): Active
- Activity (HeLa [18]): 42.1%
- Activity (HeLa [19]): 82.2%
- Activity (HeLa [20]): 3.9%
- fold change (FC) (HeLa [21]): 5
- Activity (HeLa [22]): Active
- Activity (HeLa [23]): 6.4%
- Activity (HeLa [24]): 30.1%
- Activity (HeLa [25]): 37.5%
- Activity (HeLa [26]): 10%
- Activity (HeLa [27]): 43.5%
- inhibition (Homo sapiens): Active
- inhibition [28]: Active
- inhibition [29]: Active

Reference: ChEMBL document CHEMBL4251606, “Design and characterization of α-lipoic acyl shikonin ester twin drugs as tubulin and PDK1 dual inhibitors” (Eur J Med Chem, 2018)
